{
  "source": "patent US20030104079A1",
  "about": "“Skin tissue regeneration promoters comprising ginsenoside Rb1” (Japan Science and Technology Corporation, Japan, priority 2000, published 2003)",
  "tested_on": "open wound of rat skin",
  "assay": "Open wound healing by external or topical application to skin (propet ointment)",
  "format": "in vivo, rats",
  "description": "For that purpose, for example, by using Wistar male rats (body weight about 300 g), the punch biopsies with diameter 6 mm were made in the dorsal region of animals after shaving under inhalation anesthesia to prepare 3 regions of open wound. Among them, 0.1 g of ophthalmic white Vaseline (Propet) containing 0.01% by weight or 0.001% by weight of ginsenoside Rb1 was spread once for every day in two regions, and in the remaining open wound, the equal amount of ophthalmic white Vaseline (propet) was spread. Nine days after preparing open wound, the skin including wound regions was photographed. Further, we have examined the effects of external or topical cutaneous spread of 0.0001% by weight, 0.00001% by weight or 0.000001% by weight of ginsenoside Rb1 by the same procedure. Experimental animals were euthanized by anesthetia immediately before photographing, then wound regions were dissected out after photographing or after dissecting out wound regions, photographing was performed. Thereafter, the wound region tissues were stored in the fixative. FIG. 5 and FIG. 6 are photographs in place of drawings.\nThe punch biopsy with diameter 6 mm was performed in the dorsal 6 regions of each animal under inhalation anesthesia to prepare open wound. Thereafter, 0.1 g of propet (ophthalmic white vaseline) containing ginsenoside Rb1 at the concentrations of 0.0001% by weight (10^−4% by weight), 0.00001% by weight (10^−5% by weight), 0.000001% by weight (10^−6% by weight), 0.0000001% by weight (10^−7% by weight) and 0.00000001% by weight (10^−8% by weight), respectively, was applied externally, once a day, for 9 days on each open wound. The equal amount of propet alone was applied externally or topically in the control animals. Then, immediately after euthanasia by anesthetization, the skin containing the open wound was dissected out and photographed. The collected skin tissue was preserved in a fixative. FIG. 12 is a photograph in place of drawing.\nIn each case, there are three wounds on the left side and three wounds on the right side, totally 6 marks of open wounds.\nIn the experimental cases hereinbefore explained, an area of open wound (flair region) applied externally only with propet is set as a denominator and an area of open wound administered externally with ginsenoside Rb1 at concentrations from 10^−4% by weight to 10^−8% by weight is set as a numerator, and ratio thereof is calculated. In FIG. 13, n=3 and single asterisk (*) indicates significant difference, P<0.05, and two asterisks (**) indicate significant difference, P<0.01. Statistical test was performed according to Scheffe's post hoc test.\nDetails of dihydroginsenoside Rb1 is described in the specification of PCT/JP00/04102 (Brain cell or nerve cell protecting agents comprising ginseng). The punch biopsy with diameter 6 mm was performed at 5 places in the dorsal region of rats (n=4) under inhalation anesthesia to prepare open wound. Thereafter, 0.1 g of propet containing dihydroginsenoside Rb1 at concentrations of 0.0001% by weight (10^−4% by weight), 0.00001% by weight (10^−5% by weight), 0.000001% by weight (10^−6% by weight) and 0.0000001% by weight (10^−7% by weight), respectively, was applied topically or externally, once a day, for 9 days onto each open wound. The equal amount of propet alone was applied externally or topically in the control animals. Then, immediately after euthanasia by anesthetization, the skin containing the open wound was dissected out and photographed. The collected skin tissue was preserved in a fixative. FIG. 14 is a photograph in place of drawing. In FIG. 14, four cases are shown, and from the upper column, the first case, the second case, the third case and the fourth case are shown.",
  "note": "“Also recorded” adds a separate entry of the source.",
  "data": [
    {"smiles": "CC(C)=CCC[C@](C)(O[C@@H]1O[C@H](CO[C@@H]2O[C@H](CO)[C@@H](O)[C@H](O)[C@H]2O)[C@@H](O)[C@H](O)[C@H]1O)[C@H]1CC[C@]2(C)[C@@H]1[C@H](O)C[C@@H]1[C@@]3(C)CC[C@H](O[C@@H]4O[C@H](CO)[C@@H](O)[C@H](O)[C@H]4O[C@@H]4O[C@H](CO)[C@@H](O)[C@H](O)[C@H]4O)C(C)(C)[C@@H]3CC[C@]12C", "note": "[ginsenoside Rb1]", "values": [
      {"measurement": "open wound reduction (FIG. 13)", "setting": "0.0000001% by weight (10^−7% by weight) or less, i.e. 1 ng/g or less", "result": "reduced significantly the open wound"},
      {"measurement": "ratio of open wound area to propet alone (FIG. 13)", "setting": "10^−4% to 10^−8% by weight, n=3, Scheffe's post hoc test", "result": "wound healing was significantly promoted"},
      {"measurement": "area of the open wound relative to control", "setting": "concentrations around 10^−8% by weight", "result": "about ¼"},
      {"measurement": "growing hair in regions of wound healing (FIG. 12)", "setting": "external administration of the low concentrations of ginsenoside Rb1", "result": "growing hair was obviously observed"},
      {"measurement": "hair restoration or hair growth from regenerated open wound", "setting": "extracutaneous administration of 0.000001% by weight", "result": "obvious hair restoration or hair growth"},
      {"measurement": "area of open wound region relative to control", "setting": "ginsenoside Rb1 at 0.0001%, 0.00001%, 0.000001%, 0.0000001% or 0.00000001% by weight", "result": "½-¼"},
      {"measurement": "volume of the open wound relative to control", "setting": "low concentrations, worked out from the area reduction", "result": "about ⅛"},
      {"measurement": "effectiveness on open wound (FIG. 6)", "setting": "propet containing 0.00001% or 0.000001% by weight, compared with 0.0001% by weight", "result": "superior effectiveness as compared with propet containing 0.0001% by weight"},
      {"measurement": "open wound area vs propet alone (FIG. 5)", "setting": "propet containing 0.001% by weight, 0.1 g once every day, day 9", "result": "slightly reduced"},
      {"measurement": "open wound vs propet alone control (FIG. 5)", "setting": "propet containing 0.01% by weight, 0.1 g once every day, day 9", "result": "trivial; also recorded: no difference"},
      {"measurement": "wound healing vs propet alone (FIG. 12)", "setting": "propet containing 10^−6% to 10^−8% by weight (10 ng/g to 100 pg/g), once a day for 9 days", "result": "wound healing was obviously promoted"}
    ]}
  ]
}
